Assay results published in PMC5902630, “A Firefly Luciferase Dual Color Bioluminescence Reporter Assay Using Two Substrates To Simultaneously Monitor Two Gene Expression Events” (Scientific Reports, 2018).

Tests used:
[1] = target: PLR1 (Photinus pyralis, UniProt P08659, Y255F/S284T, form not given); experiment: bioluminescence burst (maximal light intensity), Michaelis-Menten fit; type: biochemical; settings: 2 mM Mg-ATP, 50 mM Tricine, pH 7.8; read-out: Km (μM) / BtLH2
Description: bioluminescence burst (maximal light intensity), Michaelis-Menten fit on PLR1

[2] = target: PLG3 (Photinus pyralis, UniProt P08659, F250T/L291I/Y340F/F465R, form not given); experiment: as above; type: biochemical; settings: 2 mM Mg-ATP, 50 mM Tricine, pH 7.8; read-out: Km (μM) / BtLH2
Description: bioluminescence burst (maximal light intensity), Michaelis-Menten fit on PLG3

Chain of PLG3 (P08659 whole entry F250T/L291I/Y340F/F465R, form open): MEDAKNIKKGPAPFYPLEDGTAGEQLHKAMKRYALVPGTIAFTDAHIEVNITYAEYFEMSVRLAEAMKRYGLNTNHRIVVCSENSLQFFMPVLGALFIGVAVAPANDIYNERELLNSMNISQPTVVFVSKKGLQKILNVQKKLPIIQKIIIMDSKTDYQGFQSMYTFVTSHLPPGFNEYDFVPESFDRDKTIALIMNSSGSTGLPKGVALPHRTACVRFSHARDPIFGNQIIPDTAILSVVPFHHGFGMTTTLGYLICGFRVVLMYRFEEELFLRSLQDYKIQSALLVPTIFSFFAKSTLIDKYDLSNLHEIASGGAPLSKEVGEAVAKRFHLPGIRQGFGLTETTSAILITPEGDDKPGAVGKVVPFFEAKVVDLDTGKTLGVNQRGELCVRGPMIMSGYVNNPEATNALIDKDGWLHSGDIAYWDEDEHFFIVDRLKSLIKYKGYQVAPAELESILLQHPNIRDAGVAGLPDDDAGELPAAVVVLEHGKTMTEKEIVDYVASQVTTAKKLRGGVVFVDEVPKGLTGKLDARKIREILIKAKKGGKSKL
Chain of PLR1 (P08659 whole entry Y255F/S284T, form open): as the sequence (P08659 whole entry F250T/L291I/Y340F/F465R, form open) above, with T250F, Y255F, S284T, I291L, F340Y, R465F counted along it

A Km [1] of 28 ± 3 µM and a Km [2] of 5 ± 1 µM were found for `O=C(O)[C@H]1CSC(c2cc3ccc(O)cc3s2)=N1` [BtLH2] in this work.
